Usually IC50 stands for the concentration that gives 50% inhibition.

The structures appear in SMILES notation.

The source of these data is patent publication US11207312B2, “Metallo-beta-lactamase inhibitors and methods of use thereof” (priority 2017, dated 2021).

The subject of series [1] is P. aeruginosa MB9799 (efflux-, IMP-1 plasmid). It counts as cell-based, Pseudomonas aeruginosa. The note with it: efflux − (MB9799) strain; imipenem at 2 μg/mL; in the presence of a class A, C, D serine β-lactamase inhibitor closely related to relebactam. A digest of the protocol: (§1)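 Isogenic P. aeruginosa PAO1 strains (efflux+ and multiple-efflux-pump-disrupted) carrying plasmid IMP-1, with inducible AmpC, tested by broth microdilution. Imipenem and/or ceftazidime fixed, usually at CLSI breakpoint, plus fixed class A/C β-lactamase inhibitor; titrated MBL inhibitor concentration restoring susceptibility recorded and compared between strains as efflux fold difference.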

The subject of series [2] is P. aeruginosa MB9798 (efflux+, IMP-1 plasmid). The note with it: for MB9798 MITC95 P. aeruginosa uM Efflux WT: efflux + (MB9798) strain, imipenem at 2 μg/mL, in the presence of a class A, C, D serine β-lactamase inhibitor closely related to relebactam; for Efflux ratio: fold difference between efflux+ (MB9798) and efflux− (MB9799) strains. Put shortly:
as §1

The test system of series [3] is Klebsiella pneumoniae expressing VIM-1 (IHMA599644). It counts as cell-based. Conditions: with imipenem 1 μg/ml; 95% inhibition of bacterial growth. Put shortly:
(§2)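 Read-out is absorbance after 22–24 h at 35 °C, with MITC95 taken as the lowest inhibitor concentration that, alongside imipenem at 1 μg/ml, suppresses 95% of bacterial growth. Inocula came from saline-suspended colonies diluted 1:100 into 1.1× CAMHB.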

Series [4] concerns Escherichia coli expressing NDM-1 (CLB30016). Type of series: cell-based. The note with it: with imipenem 1 μg/ml; 95% inhibition of bacterial growth. Put shortly:
as §2

The test system of series [5] is Serratia marcescens expressing IMP-1 (CL5741). Type of series: cell-based. The note with it: with imipenem 1 μg/ml; 95% inhibition of bacterial growth. A digest of the protocol: as §2
In series [6] the target is VIM-2 (Escherichia coli, UniProt Q5U7L7). Briefly: biochemical. Conditions: CCF2-FA fluorescence assay; read-out: VIM2 IC50.
In series [7] the target is IMP-1 (Serratia marcescens, UniProt P52699). The series is described as follows: biochemical. Conditions: CCF2-FA fluorescence assay, 2 hours at 25° C.; read-out: IMP1 IC50. Put shortly:
(§3)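 In pH 7 phosphate buffer (100 mM) with 10 μM ZnSO4 and 0.005% Tween-20, CCF2-FA hydrolysis (1.25 μM) by 1 pM NDM-1, 2 pM IMP-1 or 30 pM VIM-1 was run 2 h at 25° C with inhibitor from 20 to 0.00063 μM. Ex 405/em 460 nm signal fitted to a 4-parameter curve for IC50.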

Series [8] concerns the target VIM-1 (Pseudomonas aeruginosa (strain ATCC 15692 / DSM 22644 / CIP 104116 / JCM 14847 / LMG 12228 / 1C / PRS 101 / PAO1), UniProt A0A0F7KYQ8). The series is described as follows: biochemical. The note with it: CCF2-FA fluorescence assay, 2 hours at 25° C.; read-out: VIM1 IC50. Put shortly:
as §3

Series [9] addresses NDM-1 (Klebsiella pneumoniae, UniProt C7C422). Briefly: biochemical. Conditions: CCF2-FA fluorescence assay, 2 hours at 25° C. Type of series: biochemical. Put shortly:
as §3

NDM-1, sequence (C7C422 whole entry, looked up, species assumed): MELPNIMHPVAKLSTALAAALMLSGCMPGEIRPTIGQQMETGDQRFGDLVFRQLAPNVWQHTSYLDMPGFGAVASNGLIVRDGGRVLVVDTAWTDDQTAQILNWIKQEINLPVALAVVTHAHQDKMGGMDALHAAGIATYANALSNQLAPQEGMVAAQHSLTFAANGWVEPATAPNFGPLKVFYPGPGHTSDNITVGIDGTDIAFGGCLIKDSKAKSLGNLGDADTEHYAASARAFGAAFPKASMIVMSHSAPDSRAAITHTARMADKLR
IMP-1, sequence (P52699 whole entry, looked up, species assumed): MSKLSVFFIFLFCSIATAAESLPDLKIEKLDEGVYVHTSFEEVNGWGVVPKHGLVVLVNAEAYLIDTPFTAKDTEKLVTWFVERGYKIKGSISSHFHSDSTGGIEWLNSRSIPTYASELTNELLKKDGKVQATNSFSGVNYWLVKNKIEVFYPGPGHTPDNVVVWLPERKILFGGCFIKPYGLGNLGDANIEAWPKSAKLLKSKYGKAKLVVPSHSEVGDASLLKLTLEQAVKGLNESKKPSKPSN

On to `NS(=O)(=O)c1c(S(=O)(=O)N[C@@H]2CCNC2)ccc(N2CCC(Cc3ccccn3)CC2)c1-c1nnn[nH]1` [Example 106, 4-[4-(pyridin-2-ylmethyl)piperidin-1-yl]-N1-[(3R)-pyrrolidin-3-yl]-3-(1H-tetrazol-5-yl)benzene-1,2-disulfonamide], for which, in series [1], the “MB9799 MITC95 P. aeruginosa uM Efflux Mutant” value was found to be 3.13 µM. The “MB9798 MITC95 P. aeruginosa uM Efflux WT” value in series [2] was 50.00 µM. For the same compound, the Efflux ratio in series [2] worked out at 16.00. Further, the “IHMA599644 K. pneumoniae MITC95 VIM” value in [3] is 6.25 µM. The “CLB30016 E. coli MITC95 NDM” value in series [4] was determined as 6.25 µM. Also, in [5], the “CL5741 S. marcescens MITC95 IMP” value came out at 3.13 µM. For the same compound, the IC50 in [6] came out at 0.46 nM; in [7] it was 0.12 nM; in series [8], 0.1 nM; in series [9], 0.06 nM.
For `NS(=O)(=O)c1c(S(=O)(=O)N[C@@H]2CCNC2)ccc(N2CCCC(CO)C2)c1-c1nnn[nH]1` (stereo partly drawn) [Example 107, 4-[3-(hydroxymethyl)piperidin-1-yl]-N1-[(3R)-pyrrolidin-3-yl]-3-(1H-tetrazol-5-yl)benzene-1,2-disulfonamide], in series [1], the “MB9799 MITC95 P. aeruginosa uM Efflux Mutant” value worked out at 1.56 µM. The “MB9798 MITC95 P. aeruginosa uM Efflux WT” value in series [2] was 3.13 µM. Further, in series [2], the Efflux ratio came out at 2.00. In addition, the “IHMA599644 K. pneumoniae MITC95 VIM” value in series [3] turned out to be 6.25 µM. Moreover, in series [4], the “CLB30016 E. coli MITC95 NDM” value came out at 3.13 µM. Further, the “CL5741 S. marcescens MITC95 IMP” value in series [5] amounted to 3.13 µM. The half-inhibitory concentration (IC50) in series [6] amounted to 0.42 nM; in series [7] it was 1.1 nM; in series [8], 0.19 nM; in [9] it was 0.25 nM.
Consider `NS(=O)(=O)c1c(S(=O)(=O)N[C@@H]2CCNC2)ccc(N2CCCC(C(=O)NCCCO)C2)c1-c1nnn[nH]1` (stereo partly drawn) [Example 108, N-(3-hydroxypropyl)-1-{4-[(3R)-pyrrolidin-3-ylsulfamoyl]-3-sulfamoyl-2-(1H-tetrazol-5-yl)phenyl}piperidine-3-carboxamide], for which the “MB9799 MITC95 P. aeruginosa uM Efflux Mutant” value in series [1] was found to be 6.25 µM. For the same compound, in [2], the “MB9798 MITC95 P. aeruginosa uM Efflux WT” value is 12.50 µM. The Efflux ratio in [2] was 2.00. Besides, the “IHMA599644 K. pneumoniae MITC95 VIM” value in series [3] stood at 12.50 µM. Also, the “CLB30016 E. coli MITC95 NDM” value in series [4] came to 6.25 µM. Further, in series [5], the “CL5741 S. marcescens MITC95 IMP” value stood at 12.50 µM. For the same compound, the half-inhibitory concentration (IC50) in series [6] came to 1.77 nM; in [7], 2.39 nM; in series [8], 0.5 nM; in series [9], 0.71 nM.
Regarding `NS(=O)(=O)c1c(S(=O)(=O)N[C@@H]2CCNC2)ccc(N2CCN(C(=O)CO)CC2)c1-c1nnn[nH]1` [Example 109, 4-[4-(hydroxyacetyl)piperazin-1-yl]-N1-[(3R)-pyrrolidin-3-yl]-3-(1H-tetrazol-5-yl)benzene-1,2-disulfonamide], the “MB9799 MITC95 P. aeruginosa uM Efflux Mutant” value in [1] stood at 3.13 µM. Also, in series [2], the “MB9798 MITC95 P. aeruginosa uM Efflux WT” value was 3.13 µM. Further, the Efflux ratio in series [2] came out at 1.00. The “IHMA599644 K. pneumoniae MITC95 VIM” value in series [3] came to 6.25 µM. The “CLB30016 E. coli MITC95 NDM” value in series [4] is 3.13 µM. Also, the “CL5741 S. marcescens MITC95 IMP” value in series [5] came to 3.13 µM. Further, the concentration for half-maximal inhibition (IC50) amounted to 1.9 nM in series [6], 2.21 nM in [7], 0.43 nM in series [8] and 0.51 nM in [9].
In the case of `NS(=O)(=O)c1c(S(=O)(=O)N[C@@H]2CCNC2)ccc(N2CCC(Oc3ccccn3)CC2)c1-c1nnn[nH]1` [Example 110, 4-[4-(pyridin-2-yloxy)piperidin-1-yl]-N1-[(3R)-pyrrolidin-3-yl]-3-(1H-tetrazol-5-yl)benzene-1,2-disulfonamide], the “MB9799 MITC95 P. aeruginosa uM Efflux Mutant” value in [1] was found to be 1.56 µM. Besides, the “MB9798 MITC95 P. aeruginosa uM Efflux WT” value in series [2] was 50.00 µM. Further, the Efflux ratio in [2] was determined as 31.99. For the same compound, in [3], the “IHMA599644 K. pneumoniae MITC95 VIM” value was 6.25 µM. In addition, in series [4], the “CLB30016 E. coli MITC95 NDM” value amounted to 3.13 µM. Further, the “CL5741 S. marcescens MITC95 IMP” value in series [5] stood at 3.13 µM. Besides, the IC50 is 0.47 nM in series [6], 0.1 nM in [7], 0.12 nM in series [8] and 0.06 nM in series [9].
With `NS(=O)(=O)c1c(S(=O)(=O)N[C@@H]2CCNC2)ccc(N2CC(N3CCOCC3)C2)c1-c1nnn[nH]1` [Example 111, 4-(3-morpholin-4-ylazetidin-1-yl)-N1-[(3R)-pyrrolidin-3-yl]-3-(1H-tetrazol-5-yl)benzene-1,2-disulfonamide], the “MB9799 MITC95 P. aeruginosa uM Efflux Mutant” value in [1] was 1.56 µM. In series [2], the “MB9798 MITC95 P. aeruginosa uM Efflux WT” value is 12.50 µM. Also, in series [2], the Efflux ratio is listed as 8.00. In addition, in [3], the “IHMA599644 K. pneumoniae MITC95 VIM” value is 3.13 µM. In addition, the “CLB30016 E. coli MITC95 NDM” value in series [4] amounted to 0.78 µM. The “CL5741 S. marcescens MITC95 IMP” value in series [5] amounted to 1.56 µM. Besides, the half-maximal inhibitory concentration (IC50) was determined as 8.65 nM in series [6], 4.16 nM in series [7], 1.24 nM in series [8] and 4.56 nM in [9].
On to `NS(=O)(=O)c1c(S(=O)(=O)N[C@@H]2CCNC2)ccc(N2CC(N3CCCCC3)C2)c1-c1nnn[nH]1` [Example 112, 4-(3-piperidin-1-ylazetidin-1-yl)-N1-[(3R)-pyrrolidin-3-yl]-3-(1H-tetrazol-5-yl)benzene-1,2-disulfonamide], for which the “MB9799 MITC95 P. aeruginosa uM Efflux Mutant” value in series [1] is 1.56 µM. The “MB9798 MITC95 P. aeruginosa uM Efflux WT” value in series [2] was determined as 50.00 µM. In [2], the Efflux ratio is recorded as 31.99. The “IHMA599644 K. pneumoniae MITC95 VIM” value in [3] stood at 3.13 µM. In addition, the “CLB30016 E. coli MITC95 NDM” value in series [4] came out at 0.78 µM. Also, the “CL5741 S. marcescens MITC95 IMP” value in series [5] was found to be 1.56 µM. Also, the IC50 is 16.6 nM in series [6], 15 nM in [7], 2.9 nM in series [8] and 8.98 nM in series [9].
Regarding `NS(=O)(=O)c1c(S(=O)(=O)N[C@@H]2CCNC2)ccc(N2CC3(CCNCC3)C2)c1-c1nnn[nH]1` [Example 113, 4-(2,7-diazaspiro[3.5]non-2-yl)-N1-[(3R)-pyrrolidin-3-yl]-3-(1H-tetrazol-5-yl)benzene-1,2-disulfonamide], the “MB9799 MITC95 P. aeruginosa uM Efflux Mutant” value in series [1] is 0.78 µM. In addition, the “MB9798 MITC95 P. aeruginosa uM Efflux WT” value in [2] was determined as 6.25 µM. Further, in series [2], the Efflux ratio is 8.00. The “IHMA599644 K. pneumoniae MITC95 VIM” value in series [3] was found to be 1.56 µM. The “CLB30016 E. coli MITC95 NDM” value in series [4] was found to be 0.78 µM. The “CL5741 S. marcescens MITC95 IMP” value in series [5] amounted to 1.56 µM. Also, the half-inhibitory concentration (IC50) in series [6] was 119 nM; in series [7], 33.1 nM; in [8], 0.81 nM; in series [9], 13.7 nM.
Consider `CN(C)C1(C)CN(c2ccc(S(=O)(=O)N[C@@H]3CCNC3)c(S(N)(=O)=O)c2-c2nnn[nH]2)C1` [Example 114, 4-[3-(dimethylamino)-3-methylazetidin-1-yl]-N1-[(3R)-pyrrolidin-3-yl]-3-(1H-tetrazol-5-yl)benzene-1,2-disulfonamide], for which the “MB9799 MITC95 P. aeruginosa uM Efflux Mutant” value in series [1] is 3.13 µM. In addition, the “MB9798 MITC95 P. aeruginosa uM Efflux WT” value in [2] stood at 12.50 µM. In addition, the Efflux ratio in series [2] worked out at 4.00. In [3], the “IHMA599644 K. pneumoniae MITC95 VIM” value is 3.13 µM. For the same compound, in series [4], the “CLB30016 E. coli MITC95 NDM” value came to 1.56 µM. For the same compound, the “CL5741 S. marcescens MITC95 IMP” value in [5] was determined as 3.13 µM. Besides, the IC50 in series [6] was 4.27 nM; in series [7] it was 50.5 nM; in [8], 1.24 nM; in series [9], 12 nM.
For `CN1CCOC2(C1)CN(c1ccc(S(=O)(=O)N[C@@H]3CCNC3)c(S(N)(=O)=O)c1-c1nnn[nH]1)C2` [Example 115, 4-(8-methyl-5-oxa-2,8-diazaspiro[3.5]non-2-yl)-N1-[(3R)-pyrrolidin-3-yl]-3-(1H-tetrazol-5-yl)benzene-1,2-disulfonamide], the “MB9799 MITC95 P. aeruginosa uM Efflux Mutant” value in series [1] worked out at 0.78 µM. Also, the “MB9798 MITC95 P. aeruginosa uM Efflux WT” value in series [2] stood at 12.50 µM. For the same compound, in [2], the Efflux ratio is listed as 16.00. For the same compound, the “IHMA599644 K. pneumoniae MITC95 VIM” value in series [3] came to 3.13 µM. Further, the “CLB30016 E. coli MITC95 NDM” value in [4] came to 0.39 µM. In [5], the “CL5741 S. marcescens MITC95 IMP” value amounted to 0.78 µM. Further, the concentration for half-maximal inhibition (IC50) in [6] was found to be 19.2 nM; in series [7], 6.06 nM; in [8] it was 2.1 nM; in series [9], 6.14 nM.
